Data on 2 compounds can be found in patent US6495348B1, “Mitomycin biosynthetic gene cluster” (priority 1993, dated 2002).

One test concerns S. lavendulae wild-type. Briefly: MC resistance of S. lavendulae, plate count. Format: cell-based, Streptomyces lavendulae. The text has this: To establish a physiological role for MCT in S. lavendulae, the corresponding gene (mct) was inactivated by insertion of the aphII gene from transposon Tn5 to give pDHS7704.
The test system of another test is PJS103. The procedure: Construction of mct-mrd co-expression plasmid. […] The fragment contained the mrd gene under the control of the T7 promoter, including transcriptional terminator sequences (rrnB T1) upstream and downstream of mrd.
The cultures were grown overnight at 37° C. and colony-forming units (CFUS) were determined.
Co-expression of mct and mrd in E. coli. To address the notion that MRD and MCT proteins participate as components of a binding protein-dependent drug export system, the mct and mrd genes were co-expressed in E. coli.

Some results are limits rather than exact numbers.

`CO[C@@]12[C@H](COC(N)=O)C3=C(C(=O)C(C)=C(N)C3=O)N1C[C@@H]1N[C@@H]12` [MC, mitomycin C] had an MC resistance level with S. lavendulae wild-type above 150 µg/mL.
As for `COC1=C(C)C(=O)C2=C(C1=O)[C@H](COC(N)=O)[C@@]1(O)[C@@H]3[C@H](CN21)N3C` (some centres unmarked) [Mitomycin B, mitomycin B], in the test on PJS103, the “resistance to mitomycin B” value is given as “high-level resistance”.
